Laboratory results taken from ChEMBL document CHEMBL1201862, “PubChem BioAssay data set” (2004).
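Assay format: 96-well plates, 48-hour exposure. Here, GI50 denotes the concentration required for 50% inhibition of growth.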 Calls of active or inactive are those of the source. Cut-off read from the data, not from the text of the source: active = GI50 up to about 1.1 µM and inactive = higher.

Experiments:
Test in all cases: NCI anticancer screen, dose series, 48 h
NCI-H226 = system: NCI-H226
OVCAR-3 = system: OVCAR-3
UACC-257 = system: UACC-257
U-251 = system: U-251
HOP-62 = system: HOP-62
NCI-H522 = system: NCI-H522
KM12 = system: KM12
SNB-19 = system: SNB-19
SF-539 = system: SF-539
786-0 = system: 786-0
A498 = system: A498
SK-MEL-2 = system: SK-MEL-2
CAKI-1 = system: CAKI-1
SW-620 = system: SW-620
SN12C = system: SN12C

Measured: GI50

Nn1c(CCCl)nc2c(Br)cc(Br)cc2c1=O
inactive: NCI-H226 28.5 µM | OVCAR-3 9.62 µM | UACC-257 34.9 µM | U-251 23.1 µM | HOP-62 26.8 µM | NCI-H522 15.9 µM | KM12 18.7 µM | SNB-19 51.9 µM | SF-539 40.7 µM | 786-0 27.7 µM | A498 35.7 µM | SK-MEL-2 33.1 µM | CAKI-1 30.7 µM | SW-620 20.5 µM | SN12C 30.8 µM

CN(C(=O)c1ccc(Cl)cc1)C(=S)N1CCN(c2ccccn2)CC1
inactive: NCI-H226 37.2 µM | OVCAR-3 > 100 µM | UACC-257 > 100 µM | U-251 > 100 µM | HOP-62 > 100 µM | NCI-H522 > 100 µM | KM12 > 100 µM | SNB-19 > 100 µM | SF-539 > 100 µM | 786-0 > 100 µM | SK-MEL-2 > 100 µM | CAKI-1 > 100 µM | SW-620 > 100 µM | SN12C > 100 µM

Cc1c(Cl)ccc2c1NC(=O)C2(O)CC(=O)c1ccc2ccccc2c1 (stereo unspecified)
inactive: NCI-H226 24.4 µM | OVCAR-3 33.4 µM | UACC-257 55.8 µM | U-251 71.6 µM | HOP-62 > 100 µM | NCI-H522 24.7 µM | KM12 37.2 µM | SNB-19 45.8 µM | SF-539 49.8 µM | 786-0 29 µM | A498 > 100 µM | SK-MEL-2 > 100 µM | CAKI-1 42 µM | SW-620 47.8 µM | SN12C 76.7 µM

CCCCN(CCCC)CC(C(=O)Nc1ccc([N+](=O)[O-])cc1[N+](=O)[O-])/C(C)=N\NC(=O)c1ccncc1 (stereo unspecified)
inactive: OVCAR-3 > 100 µM | UACC-257 > 100 µM | U-251 > 100 µM | HOP-62 > 100 µM | NCI-H522 > 100 µM | SNB-19 > 100 µM | SF-539 > 100 µM | 786-0 > 100 µM | A498 > 100 µM | SK-MEL-2 > 100 µM | CAKI-1 > 100 µM | SW-620 > 100 µM | SN12C > 100 µM

Cn1c(=O)c2/c(n(C)c1=O)=N\C=c1\c(=O)n(C)c(=O)n(C)\c1=N\C=2
inactive: OVCAR-3 > 100 µM | UACC-257 > 100 µM | U-251 > 100 µM | HOP-62 > 100 µM | NCI-H522 > 100 µM | KM12 > 100 µM | SNB-19 > 100 µM | SF-539 > 100 µM | 786-0 > 100 µM | A498 > 100 µM | SK-MEL-2 > 100 µM | CAKI-1 > 100 µM | SW-620 > 100 µM | SN12C > 100 µM

Cc1ccc([N+](=O)[O-])cc1NC(=O)C(=O)Cc1nc2ccc(C(=O)c3ccccc3)cc2nc1O
inactive: NCI-H226 > 100 µM | OVCAR-3 > 100 µM | UACC-257 > 100 µM | HOP-62 > 100 µM | NCI-H522 > 100 µM | KM12 93.3 µM | SNB-19 > 100 µM | SF-539 > 100 µM | 786-0 > 100 µM | CAKI-1 > 100 µM | SW-620 > 100 µM | SN12C > 100 µM

COC(=O)C1=Cc2c(cc(OC)c(OC)c2OC)[C@H](c2ccc(OC)c(OC)c2OC)C1C(=O)OC (stereo partly specified)
inactive: NCI-H226 > 100 µM | OVCAR-3 > 100 µM | UACC-257 > 100 µM | U-251 > 100 µM | HOP-62 > 100 µM | NCI-H522 89.9 µM | KM12 > 100 µM | SNB-19 > 100 µM | SF-539 > 100 µM | 786-0 > 100 µM | A498 > 100 µM | CAKI-1 > 100 µM | SW-620 > 100 µM | SN12C > 100 µM

Cn1c2ccccc2c2cc(-c3ccccc3)c3c(c21)C(=O)c1ccccc1C3=O
inactive: NCI-H226 22 µM | OVCAR-3 11.9 µM | UACC-257 18 µM | HOP-62 40.5 µM | NCI-H522 15.2 µM | KM12 21.5 µM | SNB-19 61.1 µM | SF-539 22.9 µM | 786-0 16.9 µM | A498 > 100 µM | SK-MEL-2 19.5 µM | CAKI-1 28.3 µM | SW-620 18.8 µM | SN12C 28.6 µM

O=C(CCc1nnc(S)[nH]1)Nc1cc(Cl)c(Cl)cc1Cl
inactive: NCI-H226 > 100 µM | OVCAR-3 > 100 µM | UACC-257 > 100 µM | U-251 > 100 µM | HOP-62 > 100 µM | NCI-H522 > 100 µM | KM12 > 100 µM | SNB-19 > 100 µM | SF-539 > 100 µM | 786-0 > 100 µM | A498 > 100 µM | SK-MEL-2 > 100 µM | CAKI-1 > 100 µM | SW-620 > 100 µM | SN12C > 100 µM
